Holding throughout (assay type): cell-based, human
The test system of one data set is HuS-E/2 cells. Nature of the data set: MTT cell viability / cytotoxicity assay. Conditions: 24 h. Here is the method: To determine the cytotoxicity of CX, HuS-E/2 cells were incubated with CX at the concentrations indicated for 24 hours. The CX stock solution was 200 mM in dimethyl sulfoxide (DMSO; Cat. 15578544, J. T. Baker, USA), and stored at −20° C.
The procedure regarding cell culture of immortalized primary human hepatocytes HuS-E/2 cells is as follows. HuS-E/2 cell line, kindly provided by Dr. Shimotohno (Kyoto University, Japan), were maintained in primary hepatocyte medium (PH medium), containing 20 mM HEPES, 10% fetal bovine serum, 15 μg/mL L-proline, 0.25 μg/mL insulin, 50 nM dexamethasone, 44 mM NaHCO3, 10 mM nicotinamide, 5 ng/ml EGF, 0.1 mM Asc-2P, 100 IU/mL penicillin, 100 μg/mL streptomycin, 10 μg/mL gentamicin, and 1 μg/mL plasmocin in high-glucose Dulbeco's modified Eagle medium (DMEM). Cells were incubated at 37° C. in an incubator supplied with 5% CO2.
3-(4,5-dimethylthiazol-2-yl)-2,5-diphenyltetrazolium bromide (MTT) (Cat. M5655) (Sigma-Aldrich, USA) stock solution was 5 mg/mL in 1×phosphate-buffered saline (PBS), and stored at −20° C.
The procedure regarding cell viability is as follows. HuS-E/2 cells were seeded at 4.5×10^4 cells/well in a 96-well plate and were incubated with 0-1600 μM CX for 24 h. MTT was added to each well to a final concentration of […] and was incubated at 37° C. for an hour before removal. MTT-formazan crystals formed by metabolically viable cells were dissolved in 200 μL of DMSO for absorbance detection at 550 nm using a SPARK® Multimode microplate reader from TECAN, Switzerland. The 50% cytotoxic concentration (CC50) was calculated using the normalized response (variable slope) model given in GraphPad Prism 7.03 (USA).

For data set [1], the system named is adenosine 5′-monophosphate-activated protein kinase (AMPK). Nature of the data set: Western blot analysis, AMPK phosphorylation in OA-induced HuS-E/2 cells. Conditions: CX at 100-400 μM, 0.1 mM OA-induced HuS-E/2 cells. An excerpt: (§1) The procedure regarding Western blot analysis is as follows. For western blot analysis, an equal amount of protein from each sample was resolved by sodium dodecyl sulfate polyacrylamide gel electrophoresis (SDS-PAGE) and then transferred to polyvinylidene fluoride (PVDF) membranes. Primary antibodies against AMPK (Cat. GTX103487), adipose triglyceride lipase (ATGL) (Cat. GTX109941), carnitine palmitoyl-transferase 1 (CPT1) (Cat. GTX114337), and β-actin (Cat. GTX109639) were from GeneTex (Taiwan), and those against pAMPK (Cat. AP0432), phospho acetyl-CoA carboxylase (pACC) (Cat. AP0298), ACC (Cat. A15606), and fatty acid synthase (FAS) (Cat. A21182) was from ABclonal (China). Horseradish peroxidase (HRP)-conjugated secondary antibodies were from Jackson ImmunoResearch Laboratories, Inc., USA. WesternBright® ECL kits (Advansta Inc., USA) were used for protein visualization. Levels of protein expression were quantified by densitometric analyses.
(A western blot detects proteins with antibodies after separation by electrophoresis.)

The test system of data set [2] is acetyl-CoA carboxylase (ACC1). Nature of the data set: Western blot analysis, ACC1 phosphorylation in OA-induced HuS-E/2 cells. The following applies: CX at 50-400 μM, 0.1 mM OA-induced HuS-E/2 cells.
Text: as §1

The test system of data set [3] is fatty acid synthase (FAS). The data set is described as follows: Western blot analysis, FAS expression in OA-induced HuS-E/2 cells. The following applies: CX at 100-400 μM, 0.1 mM OA-induced HuS-E/2 cells.
Text: as §1

Data set [4] concerns carnitine palmitoyl-transferase 1 (CPT1). The data set is described as follows: Western blot analysis, CPT1 expression in OA-induced HuS-E/2 cells. The following applies: CX at 50-400 μM, 0.1 mM OA-induced HuS-E/2 cells.
Text: as §1

On to `COc1ccc2[nH]c(=O)oc2c1` [CX, 6-methoxybenzoxazolinone], for which, in the data set with HuS-E/2 cells (CX at 25-400 μM, MTT), the “effect on the viability of HuS-E/2 cells” value is “no significant effect”. Also, the “cytotoxicity in HuS-E/2 cells” value with HuS-E/2 cells (CX at up to 400 μM) is “did not inflict cytotoxicity”. Moreover, the CC50 with HuS-E/2 cells (HuS-E/2 cells, MTT, n=3, mean±SEM, read-out: CC50 (50% cytotoxic concentration)) came to 1430 ± 170 µM. For the same compound, in data set [1], the AMPK phosphorylation entry was “marked increase”. Further, the ACC1 phosphorylation entry in data set [2] is listed as “increasing ACC1 phosphorylation”. Further, the FAS expression entry in data set [3] is given as “downregulated FAS expression”. The CPT1 levels result in data set [4] is listed as “elevated CPT1 levels”.

The values are drawn from patent US20250134867A1, “METHOD FOR MODULATING LIPID METABOLISM, AMELIORATING NON-ALCOHOLIC FATTY LIVER DISEASE AND METABOLIC SYNDROME BY USING 6-METHOXYBENZOXAZOLINONE” (Taichung District Agricultural Research and Extension …, priority 2023, published 2025).
